Five molecules from ChEMBL document CHEMBL5705888, “Substrate specificity and inhibitors of LRRK2, a protein kinase mutated in Parkinson's disease” (Biochem J, 2009) can be followed below.

The structures appear in SMILES notation.

In experiment [1] the target is Mitogen-activated protein kinase 14 (Homo sapiens) (UniProt Q16539). As to the kind of experiment: Inhibition of p38alpha MAPK (unknown origin) at 10 uM incubated for 30 mins in presence of [gamma-33P]ATP by multidrop micro reagent based assay relative to control; values are per cent of control.
The subject of experiment [2] is Leucine-rich repeat serine/threonine-protein kinase 2 (Homo sapiens), Q5S007 [G2019S]. Briefly: Inhibition of LRRK2 G2019S mutant (unknown origin) at 10 uM incubated for 30 mins in presence of [gamma-33P]ATP by multidrop micro reagent based assay relative to control.
In experiment [3] the target is Tyrosine-protein kinase Yes (Homo sapiens) (UniProt P07947). Briefly: Inhibition of YES1 (unknown origin) at 10 uM incubated for 30 mins in presence of [gamma-33P]ATP by multidrop micro reagent based assay relative to control; values are per cent of control.
Experiment [4] has as its target Serine/threonine-protein kinase PAK 6 (Homo sapiens) (UniProt Q9NQU5). Briefly: Inhibition of PAK6 (unknown origin) at 10 uM incubated for 30 mins in presence of [gamma-33P]ATP by multidrop micro reagent based assay relative to control; values are per cent of control.
The target in experiment [5] is Mitogen-activated protein kinase 8 (Homo sapiens) (UniProt P45983). Briefly: Inhibition of JNK1 (unknown origin) at 10 uM incubated for 30 mins in presence of [gamma-33P]ATP by multidrop micro reagent based assay relative to control; values are per cent of control.
The target of experiment [6] is T1, Protein kinase C zeta type (Homo sapiens) (UniProt Q05513).
T1 sequence (whole entry): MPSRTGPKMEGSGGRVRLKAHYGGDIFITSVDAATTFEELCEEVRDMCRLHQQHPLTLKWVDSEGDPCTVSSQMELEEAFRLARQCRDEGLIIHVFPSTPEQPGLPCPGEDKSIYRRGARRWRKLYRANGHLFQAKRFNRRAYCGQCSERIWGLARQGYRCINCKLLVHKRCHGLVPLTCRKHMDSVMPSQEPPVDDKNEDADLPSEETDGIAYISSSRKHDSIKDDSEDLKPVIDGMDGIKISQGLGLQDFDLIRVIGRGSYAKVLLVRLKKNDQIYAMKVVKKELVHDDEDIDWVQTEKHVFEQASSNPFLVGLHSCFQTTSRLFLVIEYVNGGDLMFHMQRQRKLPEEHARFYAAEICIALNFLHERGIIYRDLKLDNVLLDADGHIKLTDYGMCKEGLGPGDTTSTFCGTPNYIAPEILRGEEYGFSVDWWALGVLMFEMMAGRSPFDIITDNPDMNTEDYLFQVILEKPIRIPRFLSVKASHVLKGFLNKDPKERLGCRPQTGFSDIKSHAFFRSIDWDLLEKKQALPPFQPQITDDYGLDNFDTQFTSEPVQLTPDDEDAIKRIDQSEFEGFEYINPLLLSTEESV
Briefly: Inhibition of PKCzeta (unknown origin) at 10 uM incubated for 30 mins in presence of [gamma-33P]ATP by multidrop micro reagent based assay relative to control; values are per cent of control.

The target in experiment [7] is SRSF protein kinase 1 (Homo sapiens) (UniProt Q96SB4). As to the kind of experiment: Inhibition of SRPK1 (unknown origin) at 1 uM incubated for 30 mins in presence of [gamma-33P]ATP by multidrop micro reagent based assay relative to control; values are per cent of control.
The species named for experiment [8] is Homo sapiens. As to the kind of experiment: Inhibition of VEGFR (unknown origin) at 1 uM incubated for 30 mins in presence of [gamma-33P]ATP by multidrop micro reagent based assay relative to control; values are per cent of control.
For experiment [9], the target named is Mitogen-activated protein kinase 1 (Homo sapiens) (UniProt P28482). As to the kind of experiment: Inhibition of ERK2 (unknown origin) at 1 uM incubated for 30 mins in presence of [gamma-33P]ATP by multidrop micro reagent based assay relative to control; values are per cent of control.
Experiment [10] has as its target T2, Serine/threonine-protein kinase Sgk1 (Homo sapiens) (UniProt O00141).
T2 sequence (whole entry): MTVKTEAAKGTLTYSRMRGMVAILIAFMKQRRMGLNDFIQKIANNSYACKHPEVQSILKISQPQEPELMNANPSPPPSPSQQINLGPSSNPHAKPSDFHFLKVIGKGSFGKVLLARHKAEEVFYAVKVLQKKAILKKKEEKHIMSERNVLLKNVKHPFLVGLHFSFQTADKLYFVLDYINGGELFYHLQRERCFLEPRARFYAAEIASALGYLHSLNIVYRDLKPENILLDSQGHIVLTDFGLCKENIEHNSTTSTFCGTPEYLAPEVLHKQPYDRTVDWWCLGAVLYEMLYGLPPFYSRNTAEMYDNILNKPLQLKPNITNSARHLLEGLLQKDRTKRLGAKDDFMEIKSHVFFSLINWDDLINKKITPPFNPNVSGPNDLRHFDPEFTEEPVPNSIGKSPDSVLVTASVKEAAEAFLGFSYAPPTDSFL
As to the kind of experiment: Inhibition of SGK1 (unknown origin) at 1 uM incubated for 30 mins in presence of [gamma-33P]ATP by multidrop micro reagent based assay relative to control; values are per cent of control.

Experiment [11] concerns the target Serine/threonine-protein kinase pim-1 (Homo sapiens) (UniProt P11309). Briefly: Inhibition of PIM1 (unknown origin) at 1 uM incubated for 30 mins in presence of [gamma-33P]ATP by multidrop micro reagent based assay relative to control; values are per cent of control.
The species entered for experiment [12] is Homo sapiens. Briefly: Inhibition of CDK2/cyclin A (unknown origin) at 1 uM incubated for 30 mins in presence of [gamma-33P]ATP by multidrop micro reagent based assay relative to control; values are per cent of control.

Leucine-rich repeat serine/threonine-protein kinase 2 (Homo sapiens), Q5S007 [G2019S], sequence (Q5S007 whole entry G2019S): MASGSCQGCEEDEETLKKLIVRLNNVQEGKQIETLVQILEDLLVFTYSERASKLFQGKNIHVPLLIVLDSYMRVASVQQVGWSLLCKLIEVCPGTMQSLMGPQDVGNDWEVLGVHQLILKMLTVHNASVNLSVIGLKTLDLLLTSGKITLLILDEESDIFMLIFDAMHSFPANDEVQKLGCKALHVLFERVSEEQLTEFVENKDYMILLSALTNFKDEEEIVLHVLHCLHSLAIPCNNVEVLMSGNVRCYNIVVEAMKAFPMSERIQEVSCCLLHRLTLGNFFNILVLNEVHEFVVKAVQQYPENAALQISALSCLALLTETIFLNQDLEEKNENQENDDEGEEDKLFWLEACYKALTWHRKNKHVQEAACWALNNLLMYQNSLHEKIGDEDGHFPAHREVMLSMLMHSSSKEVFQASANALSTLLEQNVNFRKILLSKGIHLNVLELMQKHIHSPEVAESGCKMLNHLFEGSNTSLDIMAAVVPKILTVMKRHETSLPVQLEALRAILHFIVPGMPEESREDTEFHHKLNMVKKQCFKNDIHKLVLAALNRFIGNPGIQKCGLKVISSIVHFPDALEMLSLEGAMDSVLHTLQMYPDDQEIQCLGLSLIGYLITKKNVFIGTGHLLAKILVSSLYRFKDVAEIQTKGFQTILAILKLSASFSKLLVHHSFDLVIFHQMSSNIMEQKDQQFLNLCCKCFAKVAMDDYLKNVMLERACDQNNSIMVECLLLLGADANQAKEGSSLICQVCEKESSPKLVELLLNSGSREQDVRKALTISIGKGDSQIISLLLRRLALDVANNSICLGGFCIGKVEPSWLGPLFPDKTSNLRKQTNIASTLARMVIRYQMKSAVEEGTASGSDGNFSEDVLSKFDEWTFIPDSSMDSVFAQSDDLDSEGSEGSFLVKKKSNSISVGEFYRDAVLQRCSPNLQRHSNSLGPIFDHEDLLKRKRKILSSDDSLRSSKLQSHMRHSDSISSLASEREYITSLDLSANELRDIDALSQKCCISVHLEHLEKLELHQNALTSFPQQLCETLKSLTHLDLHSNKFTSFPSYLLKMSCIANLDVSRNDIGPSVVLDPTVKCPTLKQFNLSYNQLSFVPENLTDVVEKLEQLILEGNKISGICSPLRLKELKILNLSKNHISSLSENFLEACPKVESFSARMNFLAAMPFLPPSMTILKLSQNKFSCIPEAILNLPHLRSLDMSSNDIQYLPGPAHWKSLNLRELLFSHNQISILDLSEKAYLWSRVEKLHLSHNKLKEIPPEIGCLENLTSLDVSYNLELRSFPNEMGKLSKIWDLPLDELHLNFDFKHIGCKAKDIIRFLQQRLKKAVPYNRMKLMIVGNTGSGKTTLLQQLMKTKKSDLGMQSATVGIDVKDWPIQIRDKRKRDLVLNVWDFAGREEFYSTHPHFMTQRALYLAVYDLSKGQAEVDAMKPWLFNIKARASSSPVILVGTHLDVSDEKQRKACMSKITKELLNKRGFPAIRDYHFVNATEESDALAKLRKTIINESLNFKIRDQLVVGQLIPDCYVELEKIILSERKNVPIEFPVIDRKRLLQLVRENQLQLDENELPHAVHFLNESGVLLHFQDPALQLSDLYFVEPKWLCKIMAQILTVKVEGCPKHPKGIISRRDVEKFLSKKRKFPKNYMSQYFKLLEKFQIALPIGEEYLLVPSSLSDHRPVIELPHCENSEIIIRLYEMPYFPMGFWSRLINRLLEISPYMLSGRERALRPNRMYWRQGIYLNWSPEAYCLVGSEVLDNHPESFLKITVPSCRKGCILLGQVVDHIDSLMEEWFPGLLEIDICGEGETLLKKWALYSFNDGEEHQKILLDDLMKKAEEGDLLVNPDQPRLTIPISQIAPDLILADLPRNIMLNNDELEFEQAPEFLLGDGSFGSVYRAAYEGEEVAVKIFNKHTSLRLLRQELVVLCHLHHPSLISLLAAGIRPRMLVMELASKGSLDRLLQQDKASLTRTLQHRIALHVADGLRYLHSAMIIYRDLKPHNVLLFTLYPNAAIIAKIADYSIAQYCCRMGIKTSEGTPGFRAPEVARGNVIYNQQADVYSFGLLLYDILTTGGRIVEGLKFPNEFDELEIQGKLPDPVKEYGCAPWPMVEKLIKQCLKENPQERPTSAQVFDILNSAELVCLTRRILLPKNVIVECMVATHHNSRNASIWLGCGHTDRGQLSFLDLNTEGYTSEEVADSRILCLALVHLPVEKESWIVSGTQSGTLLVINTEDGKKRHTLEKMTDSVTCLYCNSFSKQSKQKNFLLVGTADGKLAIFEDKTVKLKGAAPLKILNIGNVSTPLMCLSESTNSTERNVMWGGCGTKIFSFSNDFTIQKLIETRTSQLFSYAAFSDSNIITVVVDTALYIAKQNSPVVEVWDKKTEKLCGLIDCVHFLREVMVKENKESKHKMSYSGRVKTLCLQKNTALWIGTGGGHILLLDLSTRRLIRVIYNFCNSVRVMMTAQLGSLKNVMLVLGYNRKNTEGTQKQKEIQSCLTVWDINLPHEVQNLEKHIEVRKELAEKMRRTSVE
Serine/threonine-protein kinase PAK 6 (Homo sapiens), sequence (Q9NQU5 whole entry, looked up): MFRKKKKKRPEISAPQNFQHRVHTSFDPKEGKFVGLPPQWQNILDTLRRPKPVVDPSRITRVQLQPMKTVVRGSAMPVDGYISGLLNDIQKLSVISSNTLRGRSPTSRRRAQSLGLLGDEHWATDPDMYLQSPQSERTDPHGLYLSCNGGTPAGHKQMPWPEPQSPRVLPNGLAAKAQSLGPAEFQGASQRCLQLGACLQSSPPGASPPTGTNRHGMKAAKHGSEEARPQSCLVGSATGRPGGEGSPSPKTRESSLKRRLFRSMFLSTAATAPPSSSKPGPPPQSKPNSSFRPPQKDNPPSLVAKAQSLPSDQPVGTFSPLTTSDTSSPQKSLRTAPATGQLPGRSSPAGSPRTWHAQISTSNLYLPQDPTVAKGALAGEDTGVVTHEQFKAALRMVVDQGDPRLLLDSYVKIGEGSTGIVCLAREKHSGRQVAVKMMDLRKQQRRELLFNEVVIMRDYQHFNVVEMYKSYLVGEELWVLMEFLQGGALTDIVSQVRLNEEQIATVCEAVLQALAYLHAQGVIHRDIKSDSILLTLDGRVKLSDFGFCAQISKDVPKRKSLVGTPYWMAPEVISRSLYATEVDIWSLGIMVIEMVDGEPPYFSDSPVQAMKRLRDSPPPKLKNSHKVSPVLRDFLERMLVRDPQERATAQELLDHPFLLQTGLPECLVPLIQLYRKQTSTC
Mitogen-activated protein kinase 14 (Homo sapiens), sequence (Q16539 whole entry): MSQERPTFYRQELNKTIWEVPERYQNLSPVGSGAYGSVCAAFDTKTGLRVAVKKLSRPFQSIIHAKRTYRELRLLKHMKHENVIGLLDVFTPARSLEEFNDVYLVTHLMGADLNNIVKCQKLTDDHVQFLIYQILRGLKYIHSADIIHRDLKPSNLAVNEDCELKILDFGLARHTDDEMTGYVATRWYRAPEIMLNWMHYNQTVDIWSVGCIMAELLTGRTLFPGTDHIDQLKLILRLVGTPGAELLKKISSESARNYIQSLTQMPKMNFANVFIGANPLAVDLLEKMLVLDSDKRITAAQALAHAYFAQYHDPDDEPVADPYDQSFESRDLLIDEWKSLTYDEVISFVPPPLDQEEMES
Mitogen-activated protein kinase 1 (Homo sapiens), sequence (P28482 whole entry): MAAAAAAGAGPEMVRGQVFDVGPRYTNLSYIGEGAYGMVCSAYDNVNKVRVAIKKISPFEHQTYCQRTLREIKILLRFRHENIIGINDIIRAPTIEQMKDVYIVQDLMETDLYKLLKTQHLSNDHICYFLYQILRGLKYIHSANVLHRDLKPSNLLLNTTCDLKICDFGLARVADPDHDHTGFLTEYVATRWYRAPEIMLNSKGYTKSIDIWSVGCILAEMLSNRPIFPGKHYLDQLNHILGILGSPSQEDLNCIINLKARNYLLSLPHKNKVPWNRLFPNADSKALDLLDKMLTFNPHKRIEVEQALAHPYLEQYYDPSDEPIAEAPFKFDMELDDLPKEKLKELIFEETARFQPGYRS
SRSF protein kinase 1 (Homo sapiens), sequence (Q96SB4 whole entry): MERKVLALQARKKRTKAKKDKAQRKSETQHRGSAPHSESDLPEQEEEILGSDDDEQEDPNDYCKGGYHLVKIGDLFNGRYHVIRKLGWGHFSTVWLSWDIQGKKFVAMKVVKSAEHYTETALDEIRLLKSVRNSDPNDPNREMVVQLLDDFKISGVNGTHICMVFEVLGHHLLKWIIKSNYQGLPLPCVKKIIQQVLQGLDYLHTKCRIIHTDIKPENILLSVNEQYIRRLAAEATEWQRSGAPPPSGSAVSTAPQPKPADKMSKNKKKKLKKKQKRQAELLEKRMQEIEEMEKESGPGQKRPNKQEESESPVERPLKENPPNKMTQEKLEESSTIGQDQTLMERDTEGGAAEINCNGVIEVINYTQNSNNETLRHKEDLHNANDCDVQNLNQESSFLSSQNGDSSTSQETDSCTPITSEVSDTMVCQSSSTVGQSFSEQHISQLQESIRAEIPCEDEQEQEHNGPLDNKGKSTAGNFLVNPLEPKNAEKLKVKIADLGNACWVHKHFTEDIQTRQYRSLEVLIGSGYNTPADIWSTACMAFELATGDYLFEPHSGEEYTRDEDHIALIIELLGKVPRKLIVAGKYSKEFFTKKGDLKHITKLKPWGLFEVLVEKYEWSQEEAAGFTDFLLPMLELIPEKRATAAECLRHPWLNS
Mitogen-activated protein kinase 8 (Homo sapiens), sequence (P45983 whole entry): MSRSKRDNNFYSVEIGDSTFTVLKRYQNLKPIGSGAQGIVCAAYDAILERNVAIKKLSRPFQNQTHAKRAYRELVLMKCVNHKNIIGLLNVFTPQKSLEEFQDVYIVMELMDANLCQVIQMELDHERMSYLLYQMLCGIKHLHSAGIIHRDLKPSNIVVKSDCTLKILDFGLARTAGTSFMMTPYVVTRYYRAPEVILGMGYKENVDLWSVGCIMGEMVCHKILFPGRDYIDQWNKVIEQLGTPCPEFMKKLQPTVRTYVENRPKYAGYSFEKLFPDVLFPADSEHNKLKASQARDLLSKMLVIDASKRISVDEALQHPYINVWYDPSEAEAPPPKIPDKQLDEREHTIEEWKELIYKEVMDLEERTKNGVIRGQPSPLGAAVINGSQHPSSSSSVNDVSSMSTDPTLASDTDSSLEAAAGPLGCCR

As a reminder, the inhibition is the percentage by which the read-out fell short of the control. For `C[C@@H](N)[C@H]1CC[C@H](C(=O)Nc2ccncc2)CC1`, the residual activity turned out to be 103% in [1]; 96% in experiment [3]; 96% in experiment [4]; 106% in experiment [5]; 69% in experiment [6]. Further, the inhibition in experiment [2] is 11%.

`Cc1cncc2cccc(S(=O)(=O)N3CCCNC[C@@H]3C)c12`: the residual activity came to 125% in [7] and 82% in the experiment filed under Homo sapiens [8].

As for `CCn1c(-c2nonc2N)nc2cnc(Oc3cccc(NC(=O)c4ccc(OCCN5CCOCC5)cc4)c3)cc21` [GSK-269962A], the residual activity in [9] stood at 105%; in experiment [10] it was 24%; in experiment [11], 31%; in the experiment filed under Homo sapiens [12], 50%.

Turning to `O=S(=O)(c1cccc2cnccc12)N1CCCNCC1` [FASUDIL], the residual activity stood at 108% in [1]; 136% in experiment [3]; 110% in experiment [4]; 115% in [5]; 66% in experiment [6]. Further, the inhibition in experiment [2] was found to be 67%.

As to `CC1=C(C(=O)Nc2cc3cn[nH]c3cc2F)C(c2ccc(C(F)(F)F)cc2)CC(=O)N1` (centres undefined), the residual activity was found to be 94% in experiment [9]; 131% in [10]; 71% in experiment [7]; 89% in [11]; 117% in the experiment listed under Homo sapiens [8]; 49% in the experiment filed under Homo sapiens [12].
